The conditions of data set [1]: for metabolism (in words): data not shown.
For data set [2] the following is noted: for serum drug level (bioavailability): rats dosed at 20 mg/kg.
The format of data set [3] is in vitro ADME. The note with it: human liver microsomes. For orientation: Microsomes from liver hold many membrane-bound enzymes, among them those of drug oxidation.
Procedure: (§1) The assay was done in a final volume of 0.5 ml in duplicates (n=2). […] After pre-incubation, reaction was started by addition of 1 mM NADPH (pre-incubated at 37° C.). Incubations were carried out in triplicate and at various time-points (0, 5, 10, 15, 30 and 60 minutes) 100 μl aliquots were removed and quenched with 100 μl of acetonitrile containing internal standard. Samples were vortex mixed and centrifuged at 4000 rpm for 10 minutes. The supernatants were transferred to 96 well plates and submitted for LC-MS/MS analysis. As control, sample incubations done in absence of NADPH were included. From % PCR (% Parent Compound Remaining), rate of compound disappearance is determined (slope) and in vitro CLint (μl/min/mg protein) was calculated.
The nature of another data set: RLM metabolism half-life. The format is in vitro ADME. The note with it: rat liver microsomes.
Another data set in a line: in vivo. Particulars: male, Sprague Dawley, rat, 20 mpk.
The nature of data set [4]: Pharmacokinetics in male Sprague Dawley rats (oral 7 days, iv Day 1).
Procedure: At initial dosing, the animals were 12 weeks of age. The animals were group housed (up to three animals/cage/group) in polycarbonate cages with hardwood chip bedding. […] Water was provided fresh daily, ad libitum. […] As necessary, the 12-hour dark cycle was interrupted to accommodate study procedures. […] Individual doses were calculated based on body weights recorded on Day 1 and Day 7 of dose administration. […] A single intravenous dose was administered via a tail vein and blood sample on Day 1.
Animals were weighed at the time of animal selection and on Day 1 and Day 7 of dose administration.
Centrifugation began within 1 hour of collection. Plasma was placed into 96-well tubes with barcode labels. Plasma was maintained on dry ice prior to storage at approximately −70° C. Drug concentrations were measured by established chromatography/mass spectrometry (LC-MS/MS) methods.
For the next data set, the system named is full length AR. The data set is described as follows: LNCaP or AD1 degradation (AR FL), Western blot. In kind it is cell-based.
Data set [5] is described as follows: High dose Hershberger experiment, 7 days oral. The note with it: 100 mpk oral 7 days, individual animals. The format is in vivo, Sprague Dawley rat.
Procedure: Body weights were recorded on day 0 and day 7 (Table 4B). On day 7, animals were sacrificed and organs were observed.
The target in the next data set is T1, AR (Rattus norvegicus, UniProt P15207).
T1 sequence (P15207 1-902): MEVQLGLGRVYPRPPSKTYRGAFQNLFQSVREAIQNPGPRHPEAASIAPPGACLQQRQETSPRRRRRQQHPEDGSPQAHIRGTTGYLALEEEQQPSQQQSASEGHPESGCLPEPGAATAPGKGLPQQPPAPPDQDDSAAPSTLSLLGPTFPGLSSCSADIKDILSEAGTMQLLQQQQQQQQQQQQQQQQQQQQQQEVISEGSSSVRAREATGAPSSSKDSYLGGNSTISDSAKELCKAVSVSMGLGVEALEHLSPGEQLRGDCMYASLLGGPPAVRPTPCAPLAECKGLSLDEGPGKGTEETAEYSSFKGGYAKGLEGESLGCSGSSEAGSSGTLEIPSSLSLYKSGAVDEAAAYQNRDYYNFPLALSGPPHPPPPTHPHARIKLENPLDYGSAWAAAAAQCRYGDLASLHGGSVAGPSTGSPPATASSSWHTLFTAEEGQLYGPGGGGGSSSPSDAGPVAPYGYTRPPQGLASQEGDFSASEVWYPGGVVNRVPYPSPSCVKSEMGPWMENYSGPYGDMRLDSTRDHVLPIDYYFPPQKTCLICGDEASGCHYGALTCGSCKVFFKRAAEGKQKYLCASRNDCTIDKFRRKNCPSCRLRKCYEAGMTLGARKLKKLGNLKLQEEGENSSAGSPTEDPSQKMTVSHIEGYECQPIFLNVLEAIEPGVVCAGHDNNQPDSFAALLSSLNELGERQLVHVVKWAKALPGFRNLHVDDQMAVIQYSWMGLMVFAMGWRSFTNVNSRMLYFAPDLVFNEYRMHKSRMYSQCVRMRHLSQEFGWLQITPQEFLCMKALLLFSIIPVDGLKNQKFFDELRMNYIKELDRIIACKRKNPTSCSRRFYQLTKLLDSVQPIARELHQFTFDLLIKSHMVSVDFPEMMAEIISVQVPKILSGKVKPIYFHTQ
The note with it: castrated rats, 20 mg/kg for 13 days.

[6] abbreviates: Table 9, Group 3, oral 30 mg/kg.
The mark [7] stands for this setting: male, Sprague Dawley, rat, in vivo, iv, 5 mg/kg.
Setting [8] is: male, Sprague Dawley, rat, in vivo, po, 5 mg/kg.
[9] abbreviates: male, Sprague Dawley, rat, in vivo, po, 20 mg/kg.
Setting [10] is: male, Sprague Dawley, rat, in vivo, po, 30 mg/kg.
The mark [11] stands for this setting: male, Sprague Dawley, rat, in vivo, po, 60 mg/kg.

Values joined by “and” are separate entries in the source; they are usually repeats but may differ in a detail not shown here. Identical values can stand only once. “Also recorded” adds a separate entry of the source. Like-named read-outs stand apart in the source and are kept apart here.

Procedure for RLM metabolism half-life: as §1

On to `C[C@](O)(Cn1nc(F)c2cc(F)ccc21)C(=O)Nc1cnc(C#N)c(C(F)(F)F)c1` [Compound 99, (S)—N-(6-Cyano-5-(trifluoromethyl)pyridin-3-yl)-3-(3,5-difluoro-1H-indazol-1-yl)-2-hydroxy-2-methylpropanamide], for which the “metabolism (in words)” value in data set [1] was “rapid metabolism”.

Consider `C[C@](O)(Cn1cc(-c2ccc(F)cc2)nn1)C(=O)Nc1ccc(C#N)c(C(F)(F)F)c1` [Compound 1045], for which the “pharmacokinetic properties (in words)” value in data set [2] (20 mg/kg Hershberger experiment) was “outstanding pharmacokinetic properties”.

With `C[C@](O)(Cn1cc(C#N)cn1)C(=O)Nc1ccc(C#N)c(C(F)(F)F)c1` [Compound 1048], in data set [3], the “HLM Metabolism (H.L. min)” value is reported as 400 min. The “RLM Metebolism (H.L. min)” value in “RLM metabolism half-life” came out at 86 min.

As for `C[C@](O)(Cn1cc(F)cn1)C(=O)Nc1cnc(C#N)c(C(F)(F)F)c1` [Compound 1022], the “Serum Conc.” value is reported as 64 nM in data set [2] (Table 2, rats 20 mg/kg, 24-30 hours after last dose) and 64 nM in [2] (Table 3, 20 mg/kg Hershberger). For the same compound, the “serum drug level (bioavailability)” value in [2] came to 64 nM. The “HLM Metabolism (H.L. min)” value in data set [3] came to 108 min. The compound also showed a concentration at 30 h in the data set “in vivo” of 64 nM. In addition, the “RLM Metebolism (H.L. min)” value in the data set “RLM metabolism half-life” was determined as 146 min.

What is called AUC(0-inf) is total exposure, with the tail of the curve extrapolated. High values mean high exposure, low ones low exposure. By AUC(0-t) is commonly meant the area under the concentration-time curve up to a stated or last time point. A high value points to more exposure. A word on the Cmax: it is the highest concentration seen after dosing. What is called Tmax is the time at which the peak concentration occurs. The half-life is how long it takes for the measured level to halve. For `C[C@](O)(Cn1cc(F)cn1)C(=O)Nc1ccc(C#N)c(C(F)(F)F)c1` [Compound 1002], in data set [2], the “serum drug level (bioavailability)” value came to 33 nM. The “HLM Metabolism (H.L. min)” value in [3] is 82 min. Besides, in data set [4] (setting [6]), the “DN AUC0-24” value is recorded as 2070 (h * ng/mL)/(mg/kg) and the “DN Cmax” value was 111 (ng/mL)/(mg/kg). Moreover, in [4] (setting [7]), the AUC0-24 turned out to be 9580 ng·h/mL, the AUC(0-inf) came to 9600 ng·h/mL, the AUC(0-t) was determined as 9580 ng·h/mL and the C0 was determined as 2460 ng/mL. In [4] (setting [7]), the highest level (Cmax) was 2290 ng/mL, the “DN AUC0-24” value is reported as 1920, the Tmax came to 0.083 h and the Vd worked out at 2.14 L/kg. In data set [4] (setting [7]), this compound gave a clearance of 8.68 mL/min/kg. In data set [4] (male, Sprague Dawley, rat, in vivo, iv, 5 mg/kg, elimination half-life), the half-life is 2.6 h. This compound also showed a half-life in data set [4] (male, Sprague Dawley, rat, in vivo, iv, 5 mg/kg, t1/2) of 2.62 h. In addition, in data set [4] (setting [8]), the AUC0-24 is 6860 ng·h/mL, the AUC(0-inf) was 7050 ng·h/mL, the AUC(0-t) came out at 6860 ng·h/mL and the Cmax was 526 ng/mL. In [4] (setting [8]), the “DN AUC0-24” value worked out at 1370 and the time of peak concentration (Tmax) was found to be 1 h. Besides, in data set [4] (male, Sprague Dawley, rat, in vivo, po, 5 mg/kg, t1/2), the half-life was 4.87 h. Further, in data set [4] (setting [9]), the AUC0-t worked out at 37000 ng·h/mL, the exposure AUC(0-t) came to 37000 ng·h/mL, the Cmax was 2620 ng/mL and the “DN AUC0-24” value is listed as 1850. Also, in data set [4] (setting [9]), the Tmax was determined as 6 h. In [4] (setting [10]), the Cmax was found to be 3330 ng/mL and the Tmax turned out to be 12 h. In data set [4] (setting [11]), the AUC0-24 was found to be 77500 ng·h/mL, the AUC(0-t) came out at 77500 ng·h/mL, the Cmax was 3800 ng/mL and the “DN AUC0-24” value is 1290. The Tmax in [4] (setting [11]) was 1 h. The compound also registered a concentration at 30 h in “in vivo” of 33 nM. The “RLM Metebolism (H.L. min)” value in “RLM metabolism half-life” stood at 78 min.

`C[C@](O)(Cn1cc(C(F)(F)F)cn1)C(=O)Nc1ccc(C#N)c(C(F)(F)F)c1` [Compound 1017]: the “HLM Metabolism (H.L. min)” value in data set [3] turned out to be 400 min. The “DMPK (MLM) T1/2 (min)” value in data set [1] (MLM) was “Infinity”. For the same compound, the “RLM Metebolism (H.L. min)” value in “RLM metabolism half-life” worked out at 400 min.

Regarding `C[C@](O)(Cn1cc(Cl)c(Br)n1)C(=O)Nc1ccc(C#N)c(C(F)(F)F)c1` [Compound 1066, (S)-3-(3-Bromo-4-chloro-1H-pyrazol-1-yl)-N-(4-cyano-3-(trifluoromethyl)phenyl)-2-hydroxy-2-methylpropanamide], the “HLM Metabolism (H.L. min)” value in data set [3] was 319 min. Moreover, in “RLM metabolism half-life”, the “RLM Metebolism (H.L. min)” value was determined as 300 min.

For `C[C@](O)(Cn1ncc(Cl)c1Br)C(=O)Nc1ccc(C#N)c(C(F)(F)F)c1` [Compound 1067, (S)-3-(5-Bromo-4-chloro-1H-pyrazol-1-yl)-N-(4-cyano-3-(trifluoromethyl)phenyl)-2-hydroxy-2-methylpropanamide], the “SARD Activity Full Length % inhibition at 1 μM” value in the data set with full length AR (first value of the pair, 1 μM) stood at 61%. Besides, the “SARD Activity Full Length % inhibition at 10 μM” value in the data set on full length AR (second value of the pair, 10 μM) was determined as 86%.

Take `C[C@](O)(Cn1ccc2cc(F)ccc21)C(=O)Nc1cnc(C#N)c(C(F)(F)F)c1` [Compound 47, (S)—N-(6-Cyano-5-(trifluoromethyl)pyridin-3-yl)-3-(5-fluoro-1H-indol-1-yl)-2-hydroxy-2-methylpropanamide]: the “metabolism (in words)” value in data set [1] was “rapid metabolism”.

Regarding `C[C@](O)(Cn1ccc2cc(F)ccc21)C(=O)Nc1ccc(C#N)c(C(F)(F)F)c1` [Compound 11], in data set [3], the “HLM Metabolism (H.L. min)” value is reported as 6 min. For the same compound, the “Degradation (% at 3 μM)” value with full length AR (3 μM, Table 3) worked out at 60%.

Take `C[C@](O)(Cn1cc(Br)c(F)n1)C(=O)Nc1ccc(C#N)c(C(F)(F)F)c1` [Compound 1058]: the “HLM Metabolism (H.L. min)” value in data set [3] is 138 min. In addition, the “decreased exposure at the same dose as 1065” value in data set [4] (20 mg/kg) is listed as 37%. Moreover, the “DN AUC0-24” value in data set [4] (Table 10, Group 1, oral 5 mg/kg/day) is recorded as 5350 (h * ng/mL)/(mg/kg/day); in data set [4] (Table 10, Group 2, oral 10 mg/kg/day) it was 4460 (h * ng/mL)/(mg/kg/day); in [4] (Table 10, Group 3, oral 20 mg/kg/day), 3200 (h * ng/mL)/(mg/kg/day); in data set [4] (Table 10, Group 4, oral 30 mg/kg/day) it was 2380 (h * ng/mL)/(mg/kg/day); in data set [4] (Table 10, Group 5, iv 10 mg/kg Day 1), 4550 (h * ng/mL)/(mg/kg/day). In [5], the “Body wt. on sac. day” value is 430 g and 470 g. In [5], the “Day 0 body wt.” value was 430 g and 472 g. Further, in the data set “RLM metabolism half-life”, the “RLM Metebolism (H.L. min)” value was 400 min.

Consider `C[C@](O)(COc1ccc(C#N)cc1)C(=O)Nc1ccc(C#N)c(C(F)(F)F)c1` [Enobosarm], for which the “SV and VP re-growth, % of intact vehicle” value on AR is given as 50-60%. Further, the “agonist activity in ventral prostate and seminal vesicles (in words)” value at AR (20 mg/kg) is “partial agonist; also recorded: significant agonism”.
